Measured values reported in ChEMBL document CHEMBL3044736, “Synthesis, characterization, solvatochromic properties, and antimicrobial evaluation of 5-acetyl-2-thioxo-dihydro-pyrimidine-4,6-dione-based chalcones” (2013).
Converted amounts (≈) assume the structure as drawn.

Assays:
Type in all cases: functional
Penicillium [1] = experiment: Antimicrobial activity against Penicillium wild strain assessed as diameter of growth inhibition zone at 250 ug/ml after 48-96 hr by agar cup diffusion method; settings: read-out: DIZ
Penicillium [2] = experiment: Antimicrobial activity against Penicillium wild strain assessed as diameter of growth inhibition zone at 100 ug/ml after 48-96 hr by agar cup diffusion method; settings: read-out: DIZ
Trichophyton rubrum [3] = experiment: Antimicrobial activity against Trichophyton rubrum MTCC 296 assessed as diameter of growth inhibition zone at 100 ug/ml after 48-96 hr by agar cup diffusion method; settings: read-out: DIZ
Aspergillus clavatus [4] = experiment: Antimicrobial activity against Aspergillus clavatus MTCC 1323 assessed as diameter of growth inhibition zone at 100 ug/ml after 48-96 hr by agar cup diffusion method; settings: read-out: DIZ
Candida albicans [5] = experiment: Antimicrobial activity against Candida albicans MTCC 227 assessed as diameter of growth inhibition zone at 100 ug/ml after 48-96 hr by agar cup diffusion method; settings: read-out: DIZ
Penicillium [6] = experiment: Antimicrobial activity against Penicillium wild strain assessed as diameter of growth inhibition zone at 50 ug/ml after 48-96 hr by agar cup diffusion method; settings: read-out: DIZ
Trichophyton rubrum [7] = experiment: Antimicrobial activity against Trichophyton rubrum MTCC 296 assessed as diameter of growth inhibition zone at 50 ug/ml after 48-96 hr by agar cup diffusion method; settings: read-out: DIZ
Aspergillus clavatus [8] = experiment: Antimicrobial activity against Aspergillus clavatus MTCC 1323 assessed as diameter of growth inhibition zone at 50 ug/ml after 48-96 hr by agar cup diffusion method; settings: read-out: DIZ
Candida albicans [9] = experiment: Antimicrobial activity against Candida albicans MTCC 227 assessed as diameter of growth inhibition zone at 50 ug/ml after 48-96 hr by agar cup diffusion method; settings: read-out: DIZ
Penicillium [10] = experiment: Antimicrobial activity against Penicillium wild strain assessed as diameter of growth inhibition zone at 25 ug/ml after 48-96 hr by agar cup diffusion method; settings: read-out: DIZ
Trichophyton rubrum [11] = experiment: Antimicrobial activity against Trichophyton rubrum MTCC 296 assessed as diameter of growth inhibition zone at 25 ug/ml after 48-96 hr by agar cup diffusion method; settings: read-out: DIZ
Aspergillus clavatus [12] = experiment: Antimicrobial activity against Aspergillus clavatus MTCC 1323 assessed as diameter of growth inhibition zone at 25 ug/ml after 48-96 hr by agar cup diffusion method; settings: read-out: DIZ
Candida albicans [13] = experiment: Antimicrobial activity against Candida albicans MTCC 227 assessed as diameter of growth inhibition zone at 25 ug/ml after 48-96 hr by agar cup diffusion method; settings: read-out: DIZ
Penicillium [14] = experiment: Antimicrobial activity against Penicillium wild strain by agar cup diffusion method
Aspergillus clavatus [15] = experiment: Antimicrobial activity against Aspergillus clavatus MTCC 1323 by agar cup diffusion method
Pseudomonas aeruginosa [16] = experiment: Antimicrobial activity against Pseudomonas aeruginosa MTCC 1688 assessed as diameter of growth inhibition zone at 25 ug/ml after 18-24 hr by agar cup diffusion method; settings: read-out: DIZ
Escherichia coli [17] = experiment: Antimicrobial activity against Escherichia coli MTCC 443 assessed as diameter of growth inhibition zone at 25 ug/ml after 18-24 hr by agar cup diffusion method; settings: read-out: DIZ
Staphylococcus aureus [18] = experiment: Antimicrobial activity against Staphylococcus aureus MTCC 96 assessed as diameter of growth inhibition zone at 25 ug/ml after 18-24 hr by agar cup diffusion method; settings: read-out: DIZ
Streptococcus pyogenes [19] = experiment: Antimicrobial activity against Streptococcus pyogenes MTCC 442 assessed as diameter of growth inhibition zone at 25 ug/ml after 18-24 hr by agar cup diffusion method; settings: read-out: DIZ
Klebsiella pneumoniae [20] = experiment: Antimicrobial activity against Klebsiella pneumoniae MTCC 109 by agar cup diffusion method
Escherichia coli [21] = experiment: Antimicrobial activity against Escherichia coli MTCC 443 by agar cup diffusion method
Pseudomonas aeruginosa [22] = experiment: Antimicrobial activity against Pseudomonas aeruginosa MTCC 1688 by agar cup diffusion method
Staphylococcus aureus [23] = experiment: Antimicrobial activity against Staphylococcus aureus MTCC 96 by agar cup diffusion method
Streptococcus pyogenes [24] = experiment: Antimicrobial activity against Streptococcus pyogenes MTCC 442 by agar cup diffusion method
Trichophyton rubrum [25] = experiment: Antimicrobial activity against Trichophyton rubrum MTCC 296 by agar cup diffusion method
Candida albicans [26] = experiment: Antimicrobial activity against Candida albicans MTCC 227 by agar cup diffusion method
Klebsiella pneumoniae [27] = experiment: Antimicrobial activity against Klebsiella pneumoniae MTCC 109 assessed as diameter of growth inhibition zone at 250 ug/ml after 18-24 hr by agar cup diffusion method; settings: read-out: DIZ
Pseudomonas aeruginosa [28] = experiment: Antimicrobial activity against Pseudomonas aeruginosa MTCC 1688 assessed as diameter of growth inhibition zone at 250 ug/ml after 18-24 hr by agar cup diffusion method; settings: read-out: DIZ
Escherichia coli [29] = experiment: Antimicrobial activity against Escherichia coli MTCC 443 assessed as diameter of growth inhibition zone at 250 ug/ml after 18-24 hr by agar cup diffusion method; settings: read-out: DIZ
Staphylococcus aureus [30] = experiment: Antimicrobial activity against Staphylococcus aureus MTCC 96 assessed as diameter of growth inhibition zone at 250 ug/ml after 18-24 hr by agar cup diffusion method; settings: read-out: DIZ
Streptococcus pyogenes [31] = experiment: Antimicrobial activity against Streptococcus pyogenes MTCC 442 assessed as diameter of growth inhibition zone at 250 ug/ml after 18-24 hr by agar cup diffusion method; settings: read-out: DIZ
Klebsiella pneumoniae [32] = experiment: Antimicrobial activity against Klebsiella pneumoniae MTCC 109 assessed as diameter of growth inhibition zone at 100 ug/ml after 18-24 hr by agar cup diffusion method; settings: read-out: DIZ
Pseudomonas aeruginosa [33] = experiment: Antimicrobial activity against Pseudomonas aeruginosa MTCC 1688 assessed as diameter of growth inhibition zone at 100 ug/ml after 18-24 hr by agar cup diffusion method; settings: read-out: DIZ
Escherichia coli [34] = experiment: Antimicrobial activity against Escherichia coli MTCC 443 assessed as diameter of growth inhibition zone at 100 ug/ml after 18-24 hr by agar cup diffusion method; settings: read-out: DIZ
Staphylococcus aureus [35] = experiment: Antimicrobial activity against Staphylococcus aureus MTCC 96 assessed as diameter of growth inhibition zone at 100 ug/ml after 18-24 hr by agar cup diffusion method; settings: read-out: DIZ
Streptococcus pyogenes [36] = experiment: Antimicrobial activity against Streptococcus pyogenes MTCC 442 assessed as diameter of growth inhibition zone at 100 ug/ml after 18-24 hr by agar cup diffusion method; settings: read-out: DIZ
Klebsiella pneumoniae [37] = experiment: Antimicrobial activity against Klebsiella pneumoniae MTCC 109 assessed as diameter of growth inhibition zone at 50 ug/ml after 18-24 hr by agar cup diffusion method; settings: read-out: DIZ
Pseudomonas aeruginosa [38] = experiment: Antimicrobial activity against Pseudomonas aeruginosa MTCC 1688 assessed as diameter of growth inhibition zone at 50 ug/ml after 18-24 hr by agar cup diffusion method; settings: read-out: DIZ
Escherichia coli [39] = experiment: Antimicrobial activity against Escherichia coli MTCC 443 assessed as diameter of growth inhibition zone at 50 ug/ml after 18-24 hr by agar cup diffusion method; settings: read-out: DIZ
Staphylococcus aureus [40] = experiment: Antimicrobial activity against Staphylococcus aureus MTCC 96 assessed as diameter of growth inhibition zone at 50 ug/ml after 18-24 hr by agar cup diffusion method; settings: read-out: DIZ
Streptococcus pyogenes [41] = experiment: Antimicrobial activity against Streptococcus pyogenes MTCC 442 assessed as diameter of growth inhibition zone at 50 ug/ml after 18-24 hr by agar cup diffusion method; settings: read-out: DIZ
Klebsiella pneumoniae [42] = experiment: Antimicrobial activity against Klebsiella pneumoniae MTCC 109 assessed as diameter of growth inhibition zone at 25 ug/ml after 18-24 hr by agar cup diffusion method; settings: read-out: DIZ
Trichophyton rubrum [43] = experiment: Antimicrobial activity against Trichophyton rubrum MTCC 296 assessed as diameter of growth inhibition zone at 250 ug/ml after 48-96 hr by agar cup diffusion method; settings: read-out: DIZ
Aspergillus clavatus [44] = experiment: Antimicrobial activity against Aspergillus clavatus MTCC 1323 assessed as diameter of growth inhibition zone at 250 ug/ml after 48-96 hr by agar cup diffusion method; settings: read-out: DIZ
Candida albicans [45] = experiment: Antimicrobial activity against Candida albicans MTCC 227 assessed as diameter of growth inhibition zone at 250 ug/ml after 48-96 hr by agar cup diffusion method; settings: read-out: DIZ

SMILES: O=C(/C=C/c1ccccc1Cl)C1C(=O)NC(=S)NC1=O
- zone of inhibition at 250 µg/mL (Penicillium [1]): 22 mm
- zone of inhibition at 100 µg/mL (Penicillium [2]): 21 mm
- zone of inhibition at 100 µg/mL (Trichophyton rubrum [3]): 19 mm
- zone of inhibition at 100 µg/mL (Aspergillus clavatus [4]): 21 mm
- zone of inhibition at 100 µg/mL (Candida albicans [5]): 22 mm
- zone of inhibition at 50 µg/mL (Penicillium [6]): 18 mm
- zone of inhibition at 50 µg/mL (Trichophyton rubrum [7]): 20 mm
- zone of inhibition at 50 µg/mL (Aspergillus clavatus [8]): 19 mm
- zone of inhibition at 50 µg/mL (Candida albicans [9]): 22 mm
- zone of inhibition at 25 µg/mL (Penicillium [10]): 18 mm
- zone of inhibition at 25 µg/mL (Trichophyton rubrum [11]): 19 mm
- zone of inhibition at 25 µg/mL (Aspergillus clavatus [12]): 18 mm
- zone of inhibition at 25 µg/mL (Candida albicans [13]): 21 mm
- MFC (Penicillium [14]): > 1000 µg/mL
- MIC (Penicillium [14]): > 1000 µg/mL
- MFC (Aspergillus clavatus [15]): > 1000 µg/mL
- MIC (Aspergillus clavatus [15]): > 1000 µg/mL
- zone of inhibition at 25 µg/mL (Pseudomonas aeruginosa [16]): 10 mm
- zone of inhibition at 25 µg/mL (Escherichia coli [17]): 13 mm
- zone of inhibition at 25 µg/mL (Staphylococcus aureus [18]): 10 mm
- zone of inhibition at 25 µg/mL (Streptococcus pyogenes [19]): 13 mm
- MBC (Klebsiella pneumoniae [20]): 250 µg/mL (≈ 810 µM)
- MIC (Klebsiella pneumoniae [20]): 200 µg/mL (≈ 648 µM)
- MBC (Escherichia coli [21]): 500 µg/mL (≈ 1620 µM)
- MIC (Escherichia coli [21]): 250 µg/mL (≈ 810 µM)
- MBC (Pseudomonas aeruginosa [22]): 500 µg/mL (≈ 1620 µM)
- MIC (Pseudomonas aeruginosa [22]): 250 µg/mL (≈ 810 µM)
- MBC (Staphylococcus aureus [23]): 500 µg/mL (≈ 1620 µM)
- MIC (Staphylococcus aureus [23]): 250 µg/mL (≈ 810 µM)
- MBC (Streptococcus pyogenes [24]): 250 µg/mL (≈ 810 µM)
- MIC (Streptococcus pyogenes [24]): 250 µg/mL (≈ 810 µM)
- MFC (Trichophyton rubrum [25]): 500 µg/mL (≈ 1620 µM)
- MIC (Trichophyton rubrum [25]): 500 µg/mL (≈ 1620 µM)
- MFC (Candida albicans [26]): > 1000 µg/mL
- MIC (Candida albicans [26]): 250 µg/mL (≈ 810 µM)
- zone of inhibition at 250 µg/mL (Klebsiella pneumoniae [27]): 18 mm
- zone of inhibition at 250 µg/mL (Pseudomonas aeruginosa [28]): 18 mm
- zone of inhibition at 250 µg/mL (Escherichia coli [29]): 16 mm
- zone of inhibition at 250 µg/mL (Staphylococcus aureus [30]): 18 mm
- zone of inhibition at 250 µg/mL (Streptococcus pyogenes [31]): 16 mm
- zone of inhibition at 100 µg/mL (Klebsiella pneumoniae [32]): 15 mm
- zone of inhibition at 100 µg/mL (Pseudomonas aeruginosa [33]): 17 mm
- zone of inhibition at 100 µg/mL (Escherichia coli [34]): 15 mm
- zone of inhibition at 100 µg/mL (Staphylococcus aureus [35]): 17 mm
- zone of inhibition at 100 µg/mL (Streptococcus pyogenes [36]): 15 mm
- zone of inhibition at 50 µg/mL (Klebsiella pneumoniae [37]): 13 mm
- zone of inhibition at 50 µg/mL (Pseudomonas aeruginosa [38]): 14 mm
- zone of inhibition at 50 µg/mL (Escherichia coli [39]): 14 mm
- zone of inhibition at 50 µg/mL (Staphylococcus aureus [40]): 14 mm
- zone of inhibition at 50 µg/mL (Streptococcus pyogenes [41]): 14 mm
- zone of inhibition at 25 µg/mL (Klebsiella pneumoniae [42]): 12 mm
- zone of inhibition at 250 µg/mL (Trichophyton rubrum [43]): 21 mm
- zone of inhibition at 250 µg/mL (Aspergillus clavatus [44]): 22 mm
- zone of inhibition at 250 µg/mL (Candida albicans [45]): 23 mm
